Results on eleven compounds are retold here after patent US12049450B2, “Pyridyloxy-carboxylate derivative and preparation method therefor, herbicidal composition, and use” (Qingdao Kingagroot Chemical Compound Co., Ltd., priority 2018, dated 2024).

What all share (experiment): Post-emergence test experiment (greenhouse pot, spray at 2-3 leaf stage)
Common to all, as to format: in vivo
Holding throughout (conditions): 1000 g/ha; post-emergence spray at 2-3 leaf stage; assessed after 3 weeks; fresh weight inhibition rate

One test relates to Abutilon theophrasti. The essentials: (§1)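 Activity graded levels 0-5 by fresh-weight inhibition (level 5 above 85%, level 0 below 5%), assessed 3 weeks after treatment. Plants grown in greenhouse pots were sprayed post-emergence at 2-3 leaves using acetone/tween-80 solutions with methyl oleate synergist (1.5 L/ha).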
For the next test, the system named is Digitaria sanguinalis. A digest of the protocol: as §1
The next test concerns Echinochloa crusgalli. A digest of the protocol:
as §1

Another test deals with Galium spurium. A digest of the protocol: as §1
In another test the test system is Monochoria vaginalis. A digest of the protocol:
as §1

For `CC(Oc1nc(F)c(Cl)c(N)c1Cl)C(=O)SCCc1cnccc1Cl` (racemic) [Compound 119], the “Activity level (growth inhibition rate) Abutilon theophrasti” value with Abutilon theophrasti is listed as 5 (Level 5: the growth inhibition rate is greater than 85%). For the same compound, in the test with Digitaria sanguinalis, the “Activity level (growth inhibition rate) Digitaria sanguinalis” value was 5 (Level 5: the growth inhibition rate is greater than 85%). Besides, the “Activity level (growth inhibition rate) Echinochloa crusgalli” value with Echinochloa crusgalli was 5 (Level 5: the growth inhibition rate is greater than 85%). In addition, in the test with Galium spurium, the “Activity level (growth inhibition rate) Galium spurium” value is 5 (Level 5: the growth inhibition rate is greater than 85%). Further, in the test with Monochoria vaginalis, the “Activity level (growth inhibition rate) Monochoria Vaginalis” value is 5 (Level 5: the growth inhibition rate is greater than 85%).
Regarding `CC(Oc1nc(F)c(Cl)c(N)c1Cl)C(=O)OCc1ccc(C(C)C)cc1` (stereo not shown) [Compound 72], the “Activity level (growth inhibition rate) Abutilon theophrasti” value in the test on Abutilon theophrasti was 5 (Level 5: the growth inhibition rate is greater than 85%). Further, the “Activity level (growth inhibition rate) Digitaria sanguinalis” value in the test with Digitaria sanguinalis is 5 (Level 5: the growth inhibition rate is greater than 85%). Further, the “Activity level (growth inhibition rate) Echinochloa crusgalli” value with Echinochloa crusgalli is reported as 5 (Level 5: the growth inhibition rate is greater than 85%). The “Activity level (growth inhibition rate) Galium spurium” value in the test with Galium spurium is listed as 5 (Level 5: the growth inhibition rate is greater than 85%). The “Activity level (growth inhibition rate) Monochoria Vaginalis” value in the test on Monochoria vaginalis is on record as 5 (Level 5: the growth inhibition rate is greater than 85%).
As to `CC(Oc1nc(F)c(Cl)c(N)c1Cl)C(=O)OCc1cc(Br)cc(C=O)c1` (racemic) [Compound 111], the “Activity level (growth inhibition rate) Abutilon theophrasti” value in the test on Abutilon theophrasti was 5 (Level 5: the growth inhibition rate is greater than 85%). For the same compound, in the test on Digitaria sanguinalis, the “Activity level (growth inhibition rate) Digitaria sanguinalis” value is given as 5 (Level 5: the growth inhibition rate is greater than 85%). Further, in the test on Echinochloa crusgalli, the “Activity level (growth inhibition rate) Echinochloa crusgalli” value was 5 (Level 5: the growth inhibition rate is greater than 85%). In the test on Galium spurium, the “Activity level (growth inhibition rate) Galium spurium” value is 5 (Level 5: the growth inhibition rate is greater than 85%). Moreover, the “Activity level (growth inhibition rate) Monochoria Vaginalis” value in the test on Monochoria vaginalis is recorded as 5 (Level 5: the growth inhibition rate is greater than 85%).
Turning to `CC(Oc1nc(F)c(Cl)c(N)c1Cl)C(=O)SCCc1ccncn1` (stereo not shown) [Compound 125], the “Activity level (growth inhibition rate) Abutilon theophrasti” value in the test on Abutilon theophrasti is 5 (Level 5: the growth inhibition rate is greater than 85%). For the same compound, the “Activity level (growth inhibition rate) Digitaria sanguinalis” value with Digitaria sanguinalis is 5 (Level 5: the growth inhibition rate is greater than 85%). In addition, the “Activity level (growth inhibition rate) Echinochloa crusgalli” value in the test on Echinochloa crusgalli is reported as 5 (Level 5: the growth inhibition rate is greater than 85%). Also, the “Activity level (growth inhibition rate) Galium spurium” value in the test with Galium spurium is 5 (Level 5: the growth inhibition rate is greater than 85%). For the same compound, the “Activity level (growth inhibition rate) Monochoria Vaginalis” value with Monochoria vaginalis is recorded as 5 (Level 5: the growth inhibition rate is greater than 85%).
Take `CC(Oc1nc(F)c(Cl)c(N)c1Cl)C(=O)OCc1cnn(C)c1` (stereo not shown) [Compound 217]: the “Activity level (growth inhibition rate) Abutilon theophrasti” value in the test on Abutilon theophrasti is 5 (Level 5: the growth inhibition rate is greater than 85%). Moreover, the “Activity level (growth inhibition rate) Digitaria sanguinalis” value in the test with Digitaria sanguinalis is reported as 5 (Level 5: the growth inhibition rate is greater than 85%). Besides, the “Activity level (growth inhibition rate) Echinochloa crusgalli” value with Echinochloa crusgalli is given as 5 (Level 5: the growth inhibition rate is greater than 85%). Besides, in the test on Galium spurium, the “Activity level (growth inhibition rate) Galium spurium” value was 5 (Level 5: the growth inhibition rate is greater than 85%). The “Activity level (growth inhibition rate) Monochoria Vaginalis” value in the test on Monochoria vaginalis is listed as 5 (Level 5: the growth inhibition rate is greater than 85%).
As to `CC(Oc1nc(F)c(Cl)c(N)c1Cl)C(=O)SCc1nccs1` (stereo not shown) [Compound 156], in the test on Abutilon theophrasti, the “Activity level (growth inhibition rate) Abutilon theophrasti” value is 5 (Level 5: the growth inhibition rate is greater than 85%). For the same compound, in the test on Digitaria sanguinalis, the “Activity level (growth inhibition rate) Digitaria sanguinalis” value was 5 (Level 5: the growth inhibition rate is greater than 85%). Further, the “Activity level (growth inhibition rate) Echinochloa crusgalli” value with Echinochloa crusgalli is listed as 5 (Level 5: the growth inhibition rate is greater than 85%). For the same compound, the “Activity level (growth inhibition rate) Galium spurium” value in the test on Galium spurium is 5 (Level 5: the growth inhibition rate is greater than 85%). Also, the “Activity level (growth inhibition rate) Monochoria Vaginalis” value with Monochoria vaginalis is on record as 5 (Level 5: the growth inhibition rate is greater than 85%).
Consider `CC(Oc1nc(F)c(Cl)c(N)c1Cl)C(=O)OCc1ccc(Cl)cc1` (stereo not shown) [Compound 204], for which the “Activity level (growth inhibition rate) Abutilon theophrasti” value in the test on Abutilon theophrasti was 5 (Level 5: the growth inhibition rate is greater than 85%). Further, the “Activity level (growth inhibition rate) Digitaria sanguinalis” value with Digitaria sanguinalis is 5 (Level 5: the growth inhibition rate is greater than 85%). Moreover, the “Activity level (growth inhibition rate) Echinochloa crusgalli” value in the test on Echinochloa crusgalli is reported as 5 (Level 5: the growth inhibition rate is greater than 85%). Further, the “Activity level (growth inhibition rate) Galium spurium” value in the test with Galium spurium is reported as 5 (Level 5: the growth inhibition rate is greater than 85%). In the test on Monochoria vaginalis, the “Activity level (growth inhibition rate) Monochoria Vaginalis” value is 5 (Level 5: the growth inhibition rate is greater than 85%).
For `CC(Oc1nc(F)c(Cl)c(N)c1Cl)C(=O)SCc1ccccc1F` (stereo not shown) [Compound 221], in the test on Abutilon theophrasti, the “Activity level (growth inhibition rate) Abutilon theophrasti” value is reported as 5 (Level 5: the growth inhibition rate is greater than 85%). The “Activity level (growth inhibition rate) Digitaria sanguinalis” value in the test with Digitaria sanguinalis is given as 5 (Level 5: the growth inhibition rate is greater than 85%). Besides, the “Activity level (growth inhibition rate) Echinochloa crusgalli” value in the test on Echinochloa crusgalli is 5 (Level 5: the growth inhibition rate is greater than 85%). For the same compound, the “Activity level (growth inhibition rate) Galium spurium” value in the test with Galium spurium was 5 (Level 5: the growth inhibition rate is greater than 85%). Further, the “Activity level (growth inhibition rate) Monochoria Vaginalis” value in the test with Monochoria vaginalis is given as 5 (Level 5: the growth inhibition rate is greater than 85%).
In the case of `CC(Oc1nc(F)c(Cl)c(N)c1Cl)C(=O)OC(C)c1ccc(Br)cc1` (stereo not shown) [Compound 77], in the test on Abutilon theophrasti, the “Activity level (growth inhibition rate) Abutilon theophrasti” value is listed as 5 (Level 5: the growth inhibition rate is greater than 85%). Moreover, the “Activity level (growth inhibition rate) Digitaria sanguinalis” value in the test on Digitaria sanguinalis is reported as 5 (Level 5: the growth inhibition rate is greater than 85%). Also, the “Activity level (growth inhibition rate) Echinochloa crusgalli” value in the test with Echinochloa crusgalli is 5 (Level 5: the growth inhibition rate is greater than 85%). In addition, the “Activity level (growth inhibition rate) Galium spurium” value with Galium spurium is on record as 5 (Level 5: the growth inhibition rate is greater than 85%). Besides, in the test on Monochoria vaginalis, the “Activity level (growth inhibition rate) Monochoria Vaginalis” value was 5 (Level 5: the growth inhibition rate is greater than 85%).
Regarding `CC(=O)c1ccc(CCSC(=O)C(C)Oc2nc(F)c(Cl)c(N)c2Cl)cc1` (stereo not shown) [Compound 104], the “Activity level (growth inhibition rate) Abutilon theophrasti” value with Abutilon theophrasti is 5 (Level 5: the growth inhibition rate is greater than 85%). The “Activity level (growth inhibition rate) Digitaria sanguinalis” value in the test on Digitaria sanguinalis is 5 (Level 5: the growth inhibition rate is greater than 85%). The “Activity level (growth inhibition rate) Echinochloa crusgalli” value in the test on Echinochloa crusgalli was 5 (Level 5: the growth inhibition rate is greater than 85%). Further, the “Activity level (growth inhibition rate) Galium spurium” value in the test on Galium spurium was 5 (Level 5: the growth inhibition rate is greater than 85%). Also, the “Activity level (growth inhibition rate) Monochoria Vaginalis” value with Monochoria vaginalis is on record as 5 (Level 5: the growth inhibition rate is greater than 85%).
For the compound `CC(Oc1ncc(Cl)c(N)c1C(F)(F)F)C(=O)OCc1ccccc1` (stereo not shown) [Compound 16], the “Activity level (growth inhibition rate) Abutilon theophrasti” value in the test on Abutilon theophrasti is listed as 5 (Level 5: the growth inhibition rate is greater than 85%). The “Activity level (growth inhibition rate) Digitaria sanguinalis” value in the test on Digitaria sanguinalis is on record as 5 (Level 5: the growth inhibition rate is greater than 85%). In addition, the “Activity level (growth inhibition rate) Echinochloa crusgalli” value with Echinochloa crusgalli was 5 (Level 5: the growth inhibition rate is greater than 85%). Besides, in the test with Galium spurium, the “Activity level (growth inhibition rate) Galium spurium” value was 5 (Level 5: the growth inhibition rate is greater than 85%). Further, the “Activity level (growth inhibition rate) Monochoria Vaginalis” value in the test with Monochoria vaginalis is given as 5 (Level 5: the growth inhibition rate is greater than 85%).
